{"source": "ChEMBL document CHEMBL1201862", "about": "“PubChem BioAssay data set” (2004)", "assay_in_all_cases": "DTP human tumour cell line panel, 48 h", "key": {"786-0": {"tested_on": "786-0"}, "A498": {"tested_on": "A498"}, "A549": {"tested_on": "A549"}, "ACHN": {"tested_on": "ACHN"}, "CAKI-1": {"tested_on": "CAKI-1"}, "CCRF-CEM": {"tested_on": "CCRF-CEM"}, "DLD-1": {"tested_on": "DLD-1"}, "EKVX": {"tested_on": "EKVX"}, "HCC 2998": {"tested_on": "HCC 2998"}, "HCT-116": {"tested_on": "HCT-116"}, "HCT-15": {"tested_on": "HCT-15"}, "HOP-18": {"tested_on": "HOP-18"}, "HOP-62": {"tested_on": "HOP-62"}, "HT-29": {"tested_on": "HT-29"}, "K562": {"tested_on": "K562"}, "KM-20L2": {"tested_on": "KM-20L2"}, "KM12": {"tested_on": "KM12"}, "LXFL 529": {"tested_on": "LXFL 529"}, "M14": {"tested_on": "M14"}, "MOLT-4": {"tested_on": "MOLT-4"}, "Malme-3M": {"tested_on": "Malme-3M"}, "NCI-H23": {"tested_on": "NCI-H23"}, "NCI-H460": {"tested_on": "NCI-H460"}, "NCI-H522": {"tested_on": "NCI-H522"}, "OVCAR-3": {"tested_on": "OVCAR-3"}, "OVCAR-4": {"tested_on": "OVCAR-4"}, "OVCAR-5": {"tested_on": "OVCAR-5"}, "OVCAR-8": {"tested_on": "OVCAR-8"}, "RPMI-8226": {"tested_on": "RPMI-8226"}, "SF-268": {"tested_on": "SF-268"}, "SF-295": {"tested_on": "SF-295"}, "SF-539": {"tested_on": "SF-539"}, "SK-MEL-28": {"tested_on": "SK-MEL-28"}, "SK-MEL-2": {"tested_on": "SK-MEL-2"}, "SK-MEL-5": {"tested_on": "SK-MEL-5"}, "SN12C": {"tested_on": "SN12C"}, "SNB-19": {"tested_on": "SNB-19"}, "SNB-75": {"tested_on": "SNB-75"}, "SNB-78": {"tested_on": "SNB-78"}, "SW-620": {"tested_on": "SW-620"}, "TK-10": {"tested_on": "TK-10"}, "U-251": {"tested_on": "U-251"}, "UACC-257": {"tested_on": "UACC-257"}, "UO-31": {"tested_on": "UO-31"}, "XF498": {"tested_on": "XF498"}}, "note": "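Values below derive from 48-hour exposures of cells grown in 96-well plates, with endpoints linearly interpolated between the two concentrations bracketing the appropriate inhibition level. GI50 marks 50% less growth.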 The source made the active and inactive calls. Cut-off read from the data, not from the text of the source: active = GI50 up to about 1.1 µM and inactive = higher.", "data": [{"smiles": "COc1ccc(CCC2NCCc3cc(OC)c(OC)cc32)cc1", "note": "(stereo not given)", "values": [{"measurement": "GI50", "setting": "786-0", "result": "> 100 µM (inactive)"}, {"measurement": "GI50", "setting": "A498", "result": "> 100 µM (inactive)"}, {"measurement": "GI50", "setting": "A549", "result": "> 100 µM (inactive)"}, {"measurement": "GI50", "setting": "ACHN", "result": "> 100 µM (inactive)"}, {"measurement": "GI50", "setting": "CAKI-1", "result": "> 100 µM (inactive)"}, {"measurement": "GI50", "setting": "CCRF-CEM", "result": "> 100 µM (inactive)"}, {"measurement": "GI50", "setting": "DLD-1", "result": "> 100 µM (inactive)"}, {"measurement": "GI50", "setting": "EKVX", "result": "> 100 µM (inactive)"}, {"measurement": "GI50", "setting": "HCC 2998", "result": "> 100 µM (inactive)"}, {"measurement": "GI50", "setting": "HCT-116", "result": "> 100 µM (inactive)"}, {"measurement": "GI50", "setting": "HCT-15", "result": "> 100", "unit": "µM"}, {"measurement": "GI50", "setting": "HOP-18", "result": "> 100 µM (inactive)"}, {"measurement": "GI50", "setting": "HOP-62", "result": "> 100 µM (inactive)"}, {"measurement": "GI50", "setting": "HT-29", "result": "> 100 µM (inactive)"}, {"measurement": "GI50", "setting": "K562", "result": "> 100 µM (inactive)"}, {"measurement": "GI50", "setting": "KM-20L2", "result": "> 100 µM (inactive)"}, {"measurement": "GI50", "setting": "KM12", "result": "> 100 µM (inactive)"}, {"measurement": "GI50", "setting": "LXFL 529", "result": "> 100 µM (inactive)"}, {"measurement": "GI50", "setting": "M14", "result": "> 100 µM (inactive)"}, {"measurement": "GI50", "setting": "MOLT-4", "result": "> 100 µM (inactive)"}, {"measurement": "GI50", "setting": "Malme-3M", "result": "> 100 µM (inactive)"}, {"measurement": "GI50", "setting": "NCI-H23", "result": "> 100 µM (inactive)"}, {"measurement": "GI50", "setting": "NCI-H460", "result": "> 100 µM (inactive)"}, {"measurement": "GI50", "setting": "NCI-H522", "result": "> 100 µM (inactive)"}, {"measurement": "GI50", "setting": "OVCAR-3", "result": "> 100 µM (inactive)"}, {"measurement": "GI50", "setting": "OVCAR-4", "result": "25.3 µM (inactive)"}, {"measurement": "GI50", "setting": "OVCAR-5", "result": "> 100 µM (inactive)"}, {"measurement": "GI50", "setting": "OVCAR-8", "result": "> 100 µM (inactive)"}, {"measurement": "GI50", "setting": "RPMI-8226", "result": "> 100 µM (inactive)"}, {"measurement": "GI50", "setting": "SF-268", "result": "> 100 µM (inactive)"}, {"measurement": "GI50", "setting": "SF-295", "result": "> 100 µM (inactive)"}, {"measurement": "GI50", "setting": "SF-539", "result": "> 100 µM (inactive)"}, {"measurement": "GI50", "setting": "SK-MEL-28", "result": "> 100 µM (inactive)"}, {"measurement": "GI50", "setting": "SK-MEL-2", "result": "> 100 µM (inactive)"}, {"measurement": "GI50", "setting": "SK-MEL-5", "result": "> 100 µM (inactive)"}, {"measurement": "GI50", "setting": "SN12C", "result": "> 100 µM (inactive)"}, {"measurement": "GI50", "setting": "SNB-19", "result": "> 100 µM (inactive)"}, {"measurement": "GI50", "setting": "SNB-75", "result": "> 100 µM (inactive)"}, {"measurement": "GI50", "setting": "SNB-78", "result": "79.8 µM (inactive)"}, {"measurement": "GI50", "setting": "SW-620", "result": "> 100 µM (inactive)"}, {"measurement": "GI50", "setting": "TK-10", "result": "> 100 µM (inactive)"}, {"measurement": "GI50", "setting": "U-251", "result": "> 100 µM (inactive)"}, {"measurement": "GI50", "setting": "UACC-257", "result": "> 100 µM (inactive)"}, {"measurement": "GI50", "setting": "UO-31", "result": "88.1 µM (inactive)"}, {"measurement": "GI50", "setting": "XF498", "result": "> 100 µM (inactive)"}]}]}
